According to US10280170B2, “Substituted 4,5,6,7-tetrahydro-pyrazolo[1,5-a]pyrazine derivatives and 5,6,7,8-tetrahydro-4H-pyrazolo[1,5-a][1,4]diazepine derivatives as Ros1 inhibitors” (Janssen Pharmaceutica NV, priority 2014, dated 2019):
Read-outs that look alike come from different tables or passages of the source.

Columns and labels:
[1] = molecular target: T1, Ba/F3 cells containing Ros1 wild-type protein (Homo sapiens, UniProt P08922, cells depend on it, form not given); test: Ba/F3-Ros1 cell proliferation assay, wild-type Ros1; format: cell-based, murine; conditions: without IL-3
T1 construct: The background only speaks of 'a number of different unrelated proteins' and names SLC34A2-ROS1 for HCC78 cells
T1 sequence (P08922 whole entry, stated change not applied): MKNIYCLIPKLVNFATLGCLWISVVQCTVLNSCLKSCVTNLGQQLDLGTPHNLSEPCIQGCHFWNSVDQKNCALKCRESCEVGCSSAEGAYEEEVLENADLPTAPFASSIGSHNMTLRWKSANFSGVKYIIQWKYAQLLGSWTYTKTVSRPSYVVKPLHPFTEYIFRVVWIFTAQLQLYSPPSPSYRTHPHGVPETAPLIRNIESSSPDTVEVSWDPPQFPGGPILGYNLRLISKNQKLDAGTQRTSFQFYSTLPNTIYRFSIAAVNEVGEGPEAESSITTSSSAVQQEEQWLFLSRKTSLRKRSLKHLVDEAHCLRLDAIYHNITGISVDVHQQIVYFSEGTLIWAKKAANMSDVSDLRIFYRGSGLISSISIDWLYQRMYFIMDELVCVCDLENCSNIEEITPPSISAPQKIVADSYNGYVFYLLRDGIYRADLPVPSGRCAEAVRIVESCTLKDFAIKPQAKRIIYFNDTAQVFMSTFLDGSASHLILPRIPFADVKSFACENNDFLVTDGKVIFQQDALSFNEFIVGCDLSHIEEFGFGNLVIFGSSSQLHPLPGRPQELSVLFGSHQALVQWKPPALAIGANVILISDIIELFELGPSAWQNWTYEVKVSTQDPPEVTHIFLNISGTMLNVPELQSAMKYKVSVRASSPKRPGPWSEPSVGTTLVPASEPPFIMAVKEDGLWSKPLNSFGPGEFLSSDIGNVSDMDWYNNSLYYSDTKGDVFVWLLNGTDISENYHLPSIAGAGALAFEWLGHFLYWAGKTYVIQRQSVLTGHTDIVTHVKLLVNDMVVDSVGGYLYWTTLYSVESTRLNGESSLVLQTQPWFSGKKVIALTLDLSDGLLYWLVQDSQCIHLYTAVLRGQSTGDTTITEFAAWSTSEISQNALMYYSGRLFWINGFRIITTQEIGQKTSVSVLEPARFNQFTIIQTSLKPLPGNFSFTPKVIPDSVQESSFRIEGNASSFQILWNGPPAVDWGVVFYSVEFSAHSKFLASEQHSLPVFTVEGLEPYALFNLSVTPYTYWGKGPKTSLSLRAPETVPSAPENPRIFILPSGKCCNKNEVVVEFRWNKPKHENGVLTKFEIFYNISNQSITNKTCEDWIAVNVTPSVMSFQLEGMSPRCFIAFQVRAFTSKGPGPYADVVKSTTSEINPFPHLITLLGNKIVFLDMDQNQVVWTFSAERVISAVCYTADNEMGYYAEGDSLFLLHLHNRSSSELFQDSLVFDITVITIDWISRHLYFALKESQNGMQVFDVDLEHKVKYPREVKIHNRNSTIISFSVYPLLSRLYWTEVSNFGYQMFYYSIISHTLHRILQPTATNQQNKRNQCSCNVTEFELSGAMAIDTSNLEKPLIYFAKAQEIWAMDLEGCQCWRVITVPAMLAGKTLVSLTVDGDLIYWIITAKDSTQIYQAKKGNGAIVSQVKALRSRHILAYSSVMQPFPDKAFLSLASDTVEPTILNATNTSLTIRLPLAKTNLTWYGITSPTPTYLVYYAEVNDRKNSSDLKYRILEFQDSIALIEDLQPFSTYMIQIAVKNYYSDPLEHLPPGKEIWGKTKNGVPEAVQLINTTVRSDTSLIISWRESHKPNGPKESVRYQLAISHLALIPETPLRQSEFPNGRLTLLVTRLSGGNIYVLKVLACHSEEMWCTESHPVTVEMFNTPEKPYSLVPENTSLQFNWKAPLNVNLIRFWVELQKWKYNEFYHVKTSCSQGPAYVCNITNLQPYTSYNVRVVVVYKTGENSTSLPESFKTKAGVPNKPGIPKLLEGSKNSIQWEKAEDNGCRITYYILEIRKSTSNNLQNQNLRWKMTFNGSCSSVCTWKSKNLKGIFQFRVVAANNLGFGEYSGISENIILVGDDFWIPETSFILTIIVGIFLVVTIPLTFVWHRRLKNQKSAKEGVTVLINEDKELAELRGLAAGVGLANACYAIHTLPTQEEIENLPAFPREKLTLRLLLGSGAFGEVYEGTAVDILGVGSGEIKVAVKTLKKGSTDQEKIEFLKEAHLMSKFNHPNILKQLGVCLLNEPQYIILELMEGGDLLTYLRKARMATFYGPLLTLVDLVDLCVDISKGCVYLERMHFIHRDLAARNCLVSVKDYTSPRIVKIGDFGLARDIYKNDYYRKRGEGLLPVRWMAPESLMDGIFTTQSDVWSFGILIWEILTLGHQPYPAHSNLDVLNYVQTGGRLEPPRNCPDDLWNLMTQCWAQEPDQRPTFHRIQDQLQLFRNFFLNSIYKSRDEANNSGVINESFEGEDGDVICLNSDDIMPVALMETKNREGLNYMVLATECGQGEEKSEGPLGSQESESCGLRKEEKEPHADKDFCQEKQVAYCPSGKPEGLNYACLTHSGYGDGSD
Protocol: (§1) Ba/F3-Ros1 Cell Proliferation Assay
(§2) This assay was carried out with Ba/F3 cells containing three different versions of Ros1: the wild-type protein, protein with a mutation at the gatekeeper residue (L2026M), and protein with a mutation identified in a tumor from a patient that became resistant to crizotinib (Xalkori®) treatment (G2032R). Compounds were solubilized in 100% DMSO (dimethyl sulfoxide) and sprayed into polystyrene, tissue culture treated 384-well plates. A 50 μl volume of cell culture medium (phenol red free RPMI-1640, 10% FBS (fetal bovine serum), 2 mM L-Glutamine) containing 20000 Ba/F3-Ros1 cells was added to each well and the plates were placed in an incubator at 37° C. and 5% CO2. After 24 hours, 10 μl of Alamar Blue solution (0.5 mM K3Fe(CN)6, 0.5 mM K4Fe(CN)6, 0.15 mM Resazurin and 100 mM Phosphate Buffer) was added to the wells, incubated for 4 hours at 37° C. and 5% CO2 before RFU's (Relative Fluorescence Units) (ex. 540 nm., em. 590 nm.) were measured in a fluorescence plate reader.

[2] = molecular target: T2, Ros1 enzyme (Homo sapiens, UniProt P08922); test: Ros1 enzymatic assay; format: biochemical; conditions: Ros1 enzymatic assay; for IC50: read-out: ROS1 pIC50 (converted)
T2 construct: 0.5 μg/ml Ros1 enzyme
T2 sequence (P08922 28-2347): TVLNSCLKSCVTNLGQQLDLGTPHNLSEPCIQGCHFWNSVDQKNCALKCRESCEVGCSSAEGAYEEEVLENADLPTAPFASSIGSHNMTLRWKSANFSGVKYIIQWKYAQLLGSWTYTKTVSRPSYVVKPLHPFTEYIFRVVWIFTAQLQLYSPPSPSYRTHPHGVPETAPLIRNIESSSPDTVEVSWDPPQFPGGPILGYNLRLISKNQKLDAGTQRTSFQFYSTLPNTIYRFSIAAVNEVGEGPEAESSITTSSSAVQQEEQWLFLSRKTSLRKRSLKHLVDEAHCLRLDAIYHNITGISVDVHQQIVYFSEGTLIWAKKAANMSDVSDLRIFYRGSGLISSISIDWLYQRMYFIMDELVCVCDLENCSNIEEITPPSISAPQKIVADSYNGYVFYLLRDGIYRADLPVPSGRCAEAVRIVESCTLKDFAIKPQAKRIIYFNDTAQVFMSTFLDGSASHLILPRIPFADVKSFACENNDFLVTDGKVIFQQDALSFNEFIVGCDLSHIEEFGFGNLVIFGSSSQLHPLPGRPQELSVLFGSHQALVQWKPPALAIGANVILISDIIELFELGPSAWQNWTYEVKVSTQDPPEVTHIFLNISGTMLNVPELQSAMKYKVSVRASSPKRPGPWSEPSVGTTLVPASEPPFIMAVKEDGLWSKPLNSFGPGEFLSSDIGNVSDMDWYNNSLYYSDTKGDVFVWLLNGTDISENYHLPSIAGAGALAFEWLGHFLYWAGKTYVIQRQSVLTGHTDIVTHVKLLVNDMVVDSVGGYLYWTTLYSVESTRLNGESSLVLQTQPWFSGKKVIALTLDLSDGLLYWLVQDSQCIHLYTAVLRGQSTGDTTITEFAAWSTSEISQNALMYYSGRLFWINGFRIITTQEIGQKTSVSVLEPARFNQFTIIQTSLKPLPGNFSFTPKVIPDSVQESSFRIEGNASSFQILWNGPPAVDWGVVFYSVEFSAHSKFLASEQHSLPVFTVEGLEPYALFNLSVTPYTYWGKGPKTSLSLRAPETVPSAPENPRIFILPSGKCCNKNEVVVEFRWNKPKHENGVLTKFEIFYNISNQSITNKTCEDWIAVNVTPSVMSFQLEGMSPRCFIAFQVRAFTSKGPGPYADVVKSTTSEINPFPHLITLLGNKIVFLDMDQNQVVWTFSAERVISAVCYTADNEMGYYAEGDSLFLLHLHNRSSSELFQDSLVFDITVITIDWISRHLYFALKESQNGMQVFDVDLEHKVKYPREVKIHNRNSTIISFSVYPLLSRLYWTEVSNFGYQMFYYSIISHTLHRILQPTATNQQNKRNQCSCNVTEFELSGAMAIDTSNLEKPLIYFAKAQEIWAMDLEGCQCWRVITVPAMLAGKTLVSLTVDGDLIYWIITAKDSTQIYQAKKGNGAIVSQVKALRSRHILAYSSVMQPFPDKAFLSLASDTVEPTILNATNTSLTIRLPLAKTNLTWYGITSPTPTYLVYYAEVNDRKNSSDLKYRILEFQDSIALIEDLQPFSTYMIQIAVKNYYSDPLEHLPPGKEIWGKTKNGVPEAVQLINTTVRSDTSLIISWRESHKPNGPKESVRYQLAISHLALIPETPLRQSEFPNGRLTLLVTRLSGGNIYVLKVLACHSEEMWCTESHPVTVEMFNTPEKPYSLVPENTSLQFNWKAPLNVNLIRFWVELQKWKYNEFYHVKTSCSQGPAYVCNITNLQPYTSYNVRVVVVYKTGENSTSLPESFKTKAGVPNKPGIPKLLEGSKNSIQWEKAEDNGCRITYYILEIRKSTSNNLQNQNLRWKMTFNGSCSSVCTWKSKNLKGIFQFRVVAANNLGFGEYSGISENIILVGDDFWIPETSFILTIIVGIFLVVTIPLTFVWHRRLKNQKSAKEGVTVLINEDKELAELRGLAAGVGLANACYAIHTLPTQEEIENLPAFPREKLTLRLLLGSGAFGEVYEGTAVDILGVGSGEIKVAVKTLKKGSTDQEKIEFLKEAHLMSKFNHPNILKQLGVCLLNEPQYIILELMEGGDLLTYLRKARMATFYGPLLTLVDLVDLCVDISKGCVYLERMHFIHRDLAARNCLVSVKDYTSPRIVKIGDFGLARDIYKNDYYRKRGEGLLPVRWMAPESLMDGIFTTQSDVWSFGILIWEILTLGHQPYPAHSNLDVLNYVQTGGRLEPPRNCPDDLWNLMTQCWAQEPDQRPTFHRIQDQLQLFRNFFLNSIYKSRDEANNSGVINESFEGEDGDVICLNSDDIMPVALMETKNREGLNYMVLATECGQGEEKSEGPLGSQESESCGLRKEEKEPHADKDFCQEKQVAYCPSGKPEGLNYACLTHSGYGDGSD
Protocol: Compounds were spotted onto white 384-well Proxiplate plus plates (Perkin Elmer) to which 5 μl of enzyme mix (0.5 μg/ml Ros1 enzyme, 50 mM Tris-HCl pH7.5, 1 mM EGTA, 10 mM MgCl2, 0.01% Tween-20) and 5 μl of substrate mix (6 μg/ml IRS-Tide [American Peptide Company], 20 μM ATP, 13.33 μCi/ml ATP (adenosine 5′-triphosphate) P^33, 50 mM Tris-HCl pH7.5, 1 mM EGTA (ethylene glycol-bis(2-aminoethylether)-N,N,N′,N′-tetraacetic acid), 10 mM MgCl2, 0.01% Tween-20) were added. After incubation for 120 minutes at room temperature, 10 μl of stop reaction buffer (5 mM EDTA, 50 μM ATP, 0.1% BSA (bovine serum albumin), 0.1% Triton X-100, 50 mM Tris-HCl pH7.5, 1 mM EGTA, 10 mM MgCl2, 0.01% Tween-20) containing 2 mg/ml streptavidin coupled polystyrene imaging beads (Amersham Biosciences) was added and incubated for 15 minutes at room temperature. Plates were centrifuged for 3 minutes at 1500 rpm and signals detected in a LEADseeker imaging system (GE).

[3] = tested on: Ba/F3 cells containing Ros1 wild-type protein + IL-3; test: Ba/F3-Ros1 cell proliferation counter-screen, wild-type protein in the presence of 10 ng/ml murine IL-3; format: cell-based; conditions: Mus musculus, BaF3, 24 h, read-out: BaF3-ROS1 + IL3 pIC50 (converted)
Protocol: as §2
As a counter-screen the same experiment was performed for the wild-type protein in the presence of 10 ng/ml murine IL-3.

[4] = molecular target: Ba/F3 cells containing Ros1 with a mutation at the gatekeeper residue (L2026M) (Homo sapiens, UniProt P08922, L2026M, cells depend on it, form not given); test: Ba/F3-Ros1 cell proliferation assay, L2026M gatekeeper mutant; format: cell-based, murine; conditions: without IL-3
Ba/F3 cells containing Ros1 with a mutation at the gatekeeper residue (L2026M), sequence (P08922 whole entry L2026M, form open): as the sequence (P08922 whole entry, stated change not applied) above, with L2026M counted along it
Protocol: as §1, §2

[5] = counter-screen, wild-type, 10 ng/ml murine IL-3

Structure (SMILES) | melting point [°C] | BaF3-ROS1-IL3 pIC50 [1] | IC50 [2] [µM] | CC50 [3] [µM] | CC50 [3, 5] [µM] | ROS1 pIC50 [2] | Ba/F3 Ros1 L2026M (-IL-3) pIC50 [4]
O=C1NCCn2nc(-c3ccncc3)c(-c3ccc(OCc4cccc(C(F)(F)F)c4)cc3)c21 [Compound 120] | 293 | 6.6 | 0.251 | > 10 |  |  | 
CC1Cn2nc(-c3ccncc3)c(-c3ccc(OCc4ccc(C5CC5)cc4)cc3)c2CN1 (stereo not shown) [Compound 190] |  | 6.1 | 0.631 |  | > 10 |  | 
O=C1NCCn2nc(-c3ccncn3)c(-c3ccc(OCc4ccc(C5CC5)cc4)cc3)c21 [Compound 166] | 268 | 6.9 | 0.0631 |  | > 10 |  | 
O=C1NCCn2nc(-c3ccncc3)c(-c3ccc(OCc4ccccc4)cc3)c21 [Compound 130] | 260 | 5.8 | 3.16 | > 10 |  |  | 
NCc1cccc(COc2ccc(-c3c(-c4ccncc4)nn4c3C(=O)NCC4)cc2)c1 [Compound 133] |  | 5.6 | > 10 |  | > 10 |  | 
CC(C)c1ccc(COc2ccc(-c3c(-c4ccncc4)nn4c3C(=O)N(CC(=O)O)CC4)cc2)cc1 [Compound 66] |  | 5.1 | 0.251 | > 10 |  |  | 
CC(C)c1ccc(COc2ccc(-c3c(-c4ccncc4)nn4c3CN(CCN)CC4)cc2)cc1 [Compound 210] | 197 | 6.3 | 0.0631 |  | 6.31 |  | 
CC(C)Oc1cc(-c2c(-c3ccncc3)nn3c2C(=O)NCC3)ccc1OCc1ccc(C(C)C)cc1 [Compound 37] | 206 | 5.4 | 2.51 | > 10 |  |  | 
CC(O)C(=O)N1CCn2nc(-c3ccncc3)c(-c3ccc(OCc4ccc(C(C)C)cc4)cc3)c2C1 (stereo not shown) [Compound 180] |  | 6.5 | 0.501 |  | > 10 |  | 
COc1cc(OCc2ccc(C(C)C)cc2)ccc1-c1c(-c2ccncc2)nn2c1C(=O)NCC2 [Compound 34] | 276 | 6.6 | 0.316 | > 10 |  |  | 
CC(C)c1cccc(COc2ccc(-c3c(-c4ccncc4)nn4c3C(=O)NCC4)cc2)c1 [Compound 110] | 268 | 6.9 | 0.126 | > 10 |  |  | 
CC1CNCc2c(-c3ccc(OCc4ccc(C5CC5)cc4)cc3)c(-c3ccncc3)nn21 (stereo not shown) [Compound 197] | 153 | 5.8 | 0.794 |  | > 10 |  | 
CC(C)c1ccc(COC2CCN(c3c(-c4ccncc4)nn4c3C(=O)NCC4)CC2)cc1 [Compound 198] |  | 6.6 | 0.251 | > 10 |  |  | 
N#Cc1ncc(COc2ccc(-c3c(-c4ccncc4)nn4c3C(=O)NCC4)cc2)cc1Cl [Compound 230] | 277 | 5.2 | > 10 |  | > 10 |  | 
CC(C)c1ccc(COc2ccc(-c3c(-c4ccncc4)nn4c3CN(CC(=O)N3CCCC3)CC4)cc2)cc1 [Compound 179] |  | 6.4 | 0.501 |  | > 10 |  | 
c1cc(-c2nn3c(c2-c2ccc(OCc4ccc(C5CC5)nc4)cc2)CNCC3)ccn1 [Compound 186] | 195 | 6.2 | 1 |  | > 10 |  | 
CCC(C)c1ccc(COc2ccc(-c3c(-c4ccncc4)nn4c3C(=O)NCC4)cc2)cc1 (stereo not shown) [Compound 106] | 229 | 7.5 | 0.0251 | > 10 |  |  | 
COc1cccc(COc2ccc(-c3c(-c4ccncc4)nn4c3C(=O)NCC4)cc2)c1 [Compound 113] | 242 | 6.0 | 0.794 |  | > 10 |  | 
CC(C)c1ccc(COc2ccc(-c3c(-c4ccncc4)nn4c3C(=O)N(CCN)CC4)cc2)cc1 [Compound 59a] |  | 6.6 |  |  |  | 7.2 | 
CC(C)c1ccc(C(Oc2ccc(-c3c(-c4ccncc4)nn4c3C(=O)NCC4)cc2)C(=O)NCCO)cc1 (stereo not shown) [Compound 218] |  | 6.3 | 0.2 | > 10 |  |  | 
CC(C)c1ccc(COc2ccc(-c3c(-c4ccncc4)nn4c3C(=O)NCC4)c(F)c2)cc1CCO [Compound 204] |  | 7.9 | 0.00631 | > 10 |  |  | 7.8
CC(C)c1ccc(COc2ccc(-c3c(-c4ccncc4)nn4c3C(=O)N(C)CC4)cc2)cc1CCO [Compound 82] |  | 7.6 | 0.01 | > 10 |  |  | 7.3
CC(C)c1ccc(C2CNc3cc(-c4c(-c5ccncc5)nn5c4C(=O)NCC5)cnc3O2)cc1 (stereo not shown) [Compound 223] |  | 6.5 | 0.398 | > 10 |  |  | 
CC(C)c1ccc(COc2ccc(-c3c(-c4ccnc(N)n4)nn4c3C(=O)NCC4)cc2)cc1 [Compound 13] |  | 7.5 | 0.02 | > 10 |  |  | 
CC(C)c1ccc(C2CNc3cc(-c4c(-c5ccncc5)nn5c4C(=O)NCC5)ccc3O2)cc1 (stereo not shown) [Compound 225] |  | 6.7 | 0.316 |  |  |  | 
CNCC(=O)N1CCn2nc(-c3ccncc3)c(-c3ccc(OCc4ccc(C(C)C)cc4)cc3)c2C1 [Compound 182] |  | 5.7 | 1.26 |  | 5.01 |  | 
CC(C)c1ccc(COc2ccc(-c3c(-c4ccncc4)nn4c3C(=O)N(CCO)CC4)cn2)cc1 [Compound 212] |  | 7.3 | 0.0398 | > 10 |  |  | 6.8
CC(C)c1ccc(C2CNc3cc(-c4c(-c5ccncc5)nn5c4C(=O)NCC5)ccc3O2)cc1 (stereo not shown) [Compound 224] |  | 6.7 | 0.398 |  | > 10 |  | 
COc1ccc(COc2ccc(-c3c(-c4ccncc4)nn4c3CNCC4)cc2)cc1 [Compound 188] |  | 5.5 | 3.98 |  | > 10 |  | 
CC(C)c1ccc(COc2ccc(-c3c(-c4ccncn4)nn4c3CN(CCO)CC4)cc2)cc1 [Compound 220] |  | 6.5 | 0.501 |  | > 10 |  | 
